pIC50: −log10 of the molar value.
Molecular target: human lung tryptase
Experiment: β-Tryptase In-Vitro Enzyme Assay
Assay type: biochemical
Conditions: human lung tryptase 1 nM, substrate H-D-HHT-Ala-Arg-pNa 500 μM, pH 7.4, room temperature
Experimental: The β-tryptase assay was conducted with human lung tryptase (Cortex Biochem #CP3033) in an aqueous buffer (10 mM Tris, 10 mM Hepes, 150 mM NaCl, 0.1% PEG 8000, pH 7.4) using the chromogenic substrate H-D-HHT-Ala-Arg-pNa. […] Percent inhibition was calculated by comparing the initial reaction velocity of samples without inhibitor to those with inhibitor. The initial reaction velocities were analyzed using Microsoft Excel.

pIC50	SMILES
7.28	NCc1ccc2c(c1)C1(CCN(C(=O)c3ccc(-c4cc(Cl)ccc4Cl)o3)CC1)CO2 [Cpd 137, 1-[5-(2,5-dichloro-phenyl)-furan-2-yl]carbonyl-5′-aminomethyl-spiro[piperidine-4,3′-(2H)-benzo[b]furan]]
6.77	Cc1nc(-c2ccc(C(F)(F)F)cc2)sc1C(=O)N1CCC2(CC1)COc1ccc(CN)cc12 [Cpd 128, 1-[2-(4-trifluoromethyl-phenyl)-4-methyl-thiazol-5-yl]carbonyl-5′-aminomethyl-spiro[piperidine-4,3′-(2H)-benzo[b]furan]]
7.26	NCc1ccc2c(c1)C1(CCN(C(=O)c3ccc(F)c(Br)c3)CC1)CO2 [Cpd 31, 1-(3-bromo-4-fluoro-phenyl)carbonyl-5′-aminomethyl-spiro[piperidine-4,3′-(2H)-benzo[b]furan]]
6.68	NCc1ccc2c(c1)C1(CCN(C(=O)c3sc4ccc5ccccc5c4c3Cl)CC1)CO2 [Cpd 298, 1-(1-chloro-naphtho[2,1-b]thien-2-yl)carbonyl-5′-aminomethyl-spiro[piperidine-4,3′-(2H)-benzo[b]furan]]
7.60	NCc1ccc2c(c1)C1(CCN(C(=O)c3ccc(C#Cc4ccccc4)o3)CC1)CN2C(N)=O [Cpd 325, 1-(5-phenylethynyl-furan-2-yl)carbonyl-1′-aminocarbonyl-5′-aminomethyl-spiro[piperidine-4,3′-(2H)-indole]]
6.47	NCc1ccc2c(c1)C1(CCN(C(=O)c3ccc(Cn4cc(Cl)cn4)o3)CC1)CO2 [Cpd 145, 1-[5-(4-chloro-pyrazol-1-ylmethyl)-furan-2-yl]carbonyl-5′-aminomethyl-spiro[piperidine-4,3′-(2H)-benzo[b]furan]]
7.00	NCc1ccc2c(c1)C1(CCN(C(=O)c3ccc(/C=C\c4ccccc4)o3)CC1)CO2 [Cpd 77, (Z)-1-(5-phenylethenyl-furan-2-yl)carbonyl-5′-aminomethyl-spiro[piperidine-4,3′-(2H)-benzo[b]furan]]
5.85	NCc1ccc2c(c1)C1(CCN(C(=O)Cc3ccc4ccccc4c3)CC1)CO2 [Cpd 84, 1-naphthalen-2-ylmethylcarbonyl-5′-aminomethyl-spiro[piperidine-4,3′-(2H)-benzo[b]furan]]
6.70	CC(C)(C)c1ccc(C(=O)N2CCC3(CC2)COc2ccc(CN)cc23)s1 [Cpd 266, 1-(5-tert-butyl-thien-2-yl)carbonyl-5′-aminomethyl-spiro[piperidine-4,3′-(2H)-benzo[b]furan]]
7.66	COc1ccc(C(=O)N2CCC3(CC2)COc2ccc(CN)cc23)cc1I [Cpd 52, 1-(3-iodo-4-methoxy-phenyl)carbonyl-5′-aminomethyl-spiro[piperidine-4,3′-(2H)-benzo[b]furan]]
7.62	NCc1ccc2c(c1)C1(CCN(C(=O)/C=C/c3cccc(OCc4ccccc4)c3)CC1)CO2 [Cpd 281, (E)-1-(3-benzyloxy-phenylethenyl)carbonyl-5′-aminomethyl-spiro[piperidine-4,3′-(2H)-benzo[b]furan]]
6.21	NCc1ccc2c(c1)C1(CCN(C(=O)Cc3ccc(Cl)c(Cl)c3)CC1)CO2 [Cpd 86, 1-(3,4-dichloro-benzyl)carbonyl-5′-aminomethyl-spiro[piperidine-4,3′-(2H)-benzo[b]furan]]
8.51	NCc1ccc2c(c1)C1(CC2)CCN(C(=O)c2ccc(C#Cc3ccccc3)o2)CC1 [Cpd 318, 1-(5-phenylethynyl-furan-2-yl)carbonyl-5′-aminomethyl-spiro[piperidine-4,3′-indane]]
6.68	NCc1ccc2c(c1)C1(CCN(C(=O)c3cc4ccccc4o3)CC1)CO2 [Cpd 160, 1-benzo[b]furan-2-ylcarbonyl-5′-aminomethyl-spiro[piperidine-4,3′-(2H)-benzo[b]furan]]
7.60	CSc1sc(C(=O)N2CCC3(CC2)CN(S(=O)(=O)O)c2ccc(CN)cc23)c2ccccc12 [Cpd 350, 1-(3-methylthio-benzo[c]thien-1-yl)carbonyl-1′-hydroxysulfonyl-5′-aminomethyl-spiro[piperidine-4,3′-(2H)-indole]]
6.19	NCc1ccc2c(c1)C1(CCN(C(=O)c3snnc3-c3ccccc3)CC1)CO2 [Cpd 217, 1-(4-phenyl-[1,2,3]thiadiazol-5-yl)carbonyl-5′-aminomethyl-spiro[piperidine-4,3′-(2H)-benzo[b]furan]]
7.64	COC(=O)c1cccc(S(=O)(=O)N2CC3(CCN(C(=O)c4ccc(C#Cc5ccccc5)o4)CC3)c3cc(CN)ccc32)c1 [Cpd 344, 1-(5-phenylethynyl-furan-2-yl)carbonyl-1′-(3-methoxycarbonyl-phenyl)sulfonyl-5′-aminomethyl-spiro[piperidine-4,3′-(2H)-indole]]
6.23	NCc1ccc2c(c1)C1(CCN(C(=O)/C=C/c3cccc(F)c3F)CC1)CO2 [Cpd 312, (E)-1-(2,3-difluoro-phenylethenyl)carbonyl-5′-aminomethyl-spiro[piperidine-4,3′-(2H)-benzo[b]furan]]
6.06	NCc1ccc2c(c1)C1(CCN(C(=O)/C=C/c3cccc(O)c3)CC1)CO2 [Cpd 265, (E)-1-(3-hydroxy-phenylethenyl)carbonyl-5′-aminomethyl-spiro[piperidine-4,3′-(2H)-benzo[b]furan]]

pIC50	SMILES
6.92	COc1ccc(C(=O)N2CCC3(CC2)COc2ccc(CN)cc23)cc1Cl [Cpd 28, 1-(3-chloro-4-methoxy-phenyl)carbonyl-5′-aminomethyl-spiro[piperidine-4,3′-(2H)-benzo[b]furan]]
6.33	Cc1cccc(C(=O)N2CCC3(CC2)COc2ccc(CN)cc23)c1 [Cpd 41, 1-(3-methyl-phenyl)carbonyl-5′-aminomethyl-spiro[piperidine-4,3′-(2H)-benzo[b]furan]]
6.37	NCc1ccc2c(c1)C1(CCN(C(=O)c3ccc4ncsc4c3)CC1)CO2 [Cpd 16, 1-benzothiazol-6-ylcarbonyl-5′-aminomethyl-spiro[piperidine-4,3′-(2H)-benzo[b]furan]]
6.25	NCc1ccc2c(c1)C1(CCN(C(=O)c3cccc(NC(=O)Cc4cccs4)c3)CC1)CO2 [Cpd 19, 1-(3-thien-2-ylmethylcarbonylamino-phenyl)carbonyl-5′-aminomethyl-spiro[piperidine-4,3′-(2H)-benzo[b]furan]]
6.02	CSc1cccc(CC(=O)N2CCC3(CC2)COc2ccc(CN)cc23)c1 [Cpd 103, 1-(3-methylthio-benzyl)carbonyl-5′-aminomethyl-spiro[piperidine-4,3′-(2H)-benzo[b]furan]]
6.89	NCc1ccc2c(c1)C1(CCN(C(=O)/C=C/c3ccc4ccccc4c3)CC1)CO2 [Cpd 113, (E)-1-(naphthalene-2-ylethenyl)carbonyl-5′-aminomethyl-spiro[piperidine-4,3′-(2H)-benzo[b]furan]]
7.92	NCc1ccc2c(c1)C1(CCN(C(=O)c3cc(Br)c(Br)s3)CC1)CO2 [Cpd 278, 1-(4,5-dibromo-thien-2-yl)carbonyl-5′-aminomethyl-spiro[piperidine-4,3′-(2H)-benzo[b]furan]]
7.39	COc1ccc(C(=O)N2CCC3(CC2)COc2ccc(CN)cc23)cc1Br [Cpd 32, 1-(3-bromo-4-methoxy-phenyl)carbonyl-5′-aminomethyl-spiro[piperidine-4,3′-(2H)-benzo[b]furan]]
6.33	NCc1ccc2c(c1)C1(CCN(C(=O)c3ccc(C#Cc4ccccc4)o3)CC1)CN2CCP(=O)(O)O [Cpd 326, 1-(5-phenylethynyl-furan-2-yl)carbonyl-5′-aminomethyl-spiro[piperidine-4,3′-(2H)-indole]-1′-(2-ethyl-phosphonic acid)]
5.85	NCc1ccc2c(c1)C1(CCN(C(=O)C3c4ccccc4-c4ccccc43)CC1)CO2 [Cpd 289, 1-fluoren-9-ylcarbonyl-5′-aminomethyl-spiro[piperidine-4,3′-(2H)-benzo[b]furan]]
7.74	NCc1ccc2c(c1)C1(CCN(C(=O)c3ccc(C#Cc4ccccc4)o3)CC1)CN2S(=O)(=O)O [Cpd 327, 1-(5-phenylethynyl-furan-2-yl)carbonyl-1′-hydroxysulfonyl-5′-aminomethyl-spiro[piperidine-4,3′-(2H)-indole]]
5.92	NCc1ccc2c(c1)C1(CCN(C(=O)CC3c4ccccc4Oc4ccccc43)CC1)CO2 [Cpd 293, 1-9H-xanthen-9-ylmethylcarbonyl-5′-aminomethyl-spiro[piperidine-4,3′-(2H)-benzo[b]furan]]
6.85	NCc1ccc2c(c1)C1(CCN(C(=O)/C=C/c3cccc(Cl)c3)CC1)CO2 [Cpd 164, (E)-1-(3-chloro-phenylethenyl)carbonyl-5′-aminomethyl-spiro[piperidine-4,3′-(2H)-benzo[b]furan]]
6.42	NCc1ccc2c(c1)C1(CCN(C(=O)/C=C/c3ccc(Cl)cc3)CC1)CO2 [Cpd 165, (E)-1-(4-chloro-phenylethenyl)carbonyl-5′-aminomethyl-spiro[piperidine-4,3′-(2H)-benzo[b]furan]]
7.14	CNNC1CC(S(=O)(=O)N2CC3(CCN(C(=O)c4ccc(C#Cc5ccccc5)o4)CC3)c3cc(CN)ccc32)CS1(=O)=O (stereo not shown) [Cpd 338, 1-(5-phenylethynyl-furan-2-yl)carbonyl-1′-[5-(N′-methyl-hydrazino)-1,1-dioxo-3,4,5-trihydro-(2H)-thien-3-yl]sulfonyl-5′-aminomethyl-spiro[piperidine-4,3′-(2H)-indole]]
6.19	NCc1ccc2c(c1)C1(CCN(C(=O)/C=C\c3ccco3)CC1)CO2 [Cpd 242, (Z)-1-(furan-2-ylethenyl)carbonyl-5′-aminomethyl-spiro[piperidine-4,3′-(2H)-benzo[b]furan]]
6.85	Cc1cc(C(=O)N2CCC3(CC2)COc2ccc(CN)cc23)ccc1Cl [Cpd 25, 1-(3-methyl-4-chloro-phenyl)carbonyl-5′-aminomethyl-spiro[piperidine-4,3′-(2H)-benzo[b]furan]]
6.72	Cc1cc(C(=O)N2CCC3(CC2)COc2ccc(CN)cc23)ccc1I [Cpd 51, 1-(3-methyl-4-iodo-phenyl)carbonyl-5′-aminomethyl-spiro[piperidine-4,3′-(2H)-benzo[b]furan]]

Reference: patent US8158792B2, “Spiropiperidines for use as tryptase inhibitors” (Janssen Pharmaceutica N.V., priority 2007, dated 2012)
